Laboratory results as given in ChEMBL document CHEMBL2021859, “Practical access to four stereoisomers of naftidrofuryl and their binding affinity towards 5-hydroxytryptamine 2A receptor” (Bioorg Med Chem Lett, 2012).
Where a name gives a salt, the structure may show the parent alone.

Target: 5-hydroxytryptamine receptor 2A (Homo sapiens, UniProt P28223)
Assay: Displacement of [3H]ketanserin from 5HT2A receptor expressed in HEK293 cells by liquid scintillation spectrophotometry
Type: cell-based

5-hydroxytryptamine receptor 2A, sequence (P28223 whole entry): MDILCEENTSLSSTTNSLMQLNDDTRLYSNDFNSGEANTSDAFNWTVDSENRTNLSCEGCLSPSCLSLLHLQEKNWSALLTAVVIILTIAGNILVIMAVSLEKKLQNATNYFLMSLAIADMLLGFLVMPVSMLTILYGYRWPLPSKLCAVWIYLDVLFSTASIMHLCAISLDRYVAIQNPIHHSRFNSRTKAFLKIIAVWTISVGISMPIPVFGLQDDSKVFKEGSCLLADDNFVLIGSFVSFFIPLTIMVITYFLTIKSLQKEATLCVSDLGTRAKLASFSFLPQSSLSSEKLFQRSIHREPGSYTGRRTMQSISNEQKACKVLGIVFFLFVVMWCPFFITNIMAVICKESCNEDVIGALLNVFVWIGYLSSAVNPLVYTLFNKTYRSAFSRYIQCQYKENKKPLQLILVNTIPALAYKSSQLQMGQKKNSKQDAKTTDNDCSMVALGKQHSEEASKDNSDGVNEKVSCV

Row | Compound | Ki (read-out: Ki) [nM] | Ki (read-out: pKi (converted)) [nM]
1 | CCN(CC)CCOC(=O)[C@@H](Cc1cccc2ccccc12)C[C@@H]1CCCO1 | 153 | 282
2 | CCN(CC)CCOC(=O)[C@H](Cc1cccc2ccccc12)C[C@@H]1CCCO1 | 972 | 1700
3 | CCN(CC)CCOC(=O)[C@H](Cc1cccc2ccccc12)C[C@H]1CCCO1 | 2070 | 2290
4 | CCN(CC)CCOC(=O)[C@@H](Cc1cccc2ccccc12)C[C@H]1CCCO1 | 150 | 145
5 | CCN(CC)CCOC(=O)C(Cc1cccc2ccccc12)CC1CCCO1 (stereo not given) [NAFRONYL OXALATE] | 256 | 331
